Here are results for 29 sequences from the supplement of paper PMC11208160.

This series is described as follows: recombinant UMI read abundance after kanamycin selection (control-corrected) (log10(CPM+1)); higher = more efficient recombination; extreme values may be limits of the assay; sequences stand for … in AGTGCAGAGAAAATCGGCCAGTTTTCTCTGCCTGCAGTCCGCATGCCGTGGGACCCCTTGGGTTCTAACCTGTTGCCTAGATTTATGCAGCGGACTGCCTTTCTCCCAAAGTGATAAACCGG…AGGTTGGTTTCACT; site = the 11-nt donor. In a few lines: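 Counts of recombinant UMIs were reported as log10(CPM+1). Before that, they were converted to CPM, averaged over replicates and scaled using control-derived factors. They came from PCR across the donor–target junction after Escherichia coli carrying the pair library and target plasmid was plated on IPTG (0.07 mM) plus kanamycin, or unselected, in two replicates each.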
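Note: IS621 bridge recombinase in Escherichia coli cells against a fixed T5 target plasmid.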

In the case of “CACTTGGCATGGACCGGTTTTCCCGGTAATCCGTATTTGGA (site CACTTGGCTCC)”, the “recombinant UMI read abundance (log10)” value stood at 0.381.
With “CACTTGGCATGGACCGGTTTTCCCGGTAATCCGTATTTGGA (site CACTTGGCTGC)”, the “recombinant UMI read abundance (log10)” value was determined as 0.96.
Regarding “CACTTGGCATGGACCGGTTTTCCCGGTAATCCGTATTTGGA (site CACTTGGCTTA)”, the “recombinant UMI read abundance (log10)” value turned out to be 1.12.
Under “CACTTGGCATGGACCGGTTTTCCCGGTAATCCGTATTTGGA (site CACTTGGCTTC)” stands 0.91; under “CACTTGGCATGGACCGGTTTTCCCGGTAATCCGTATTTGGA (site CACTTGGCTTG)”, 0.926; under “CACTTGGCATGGACCGGTTTTCCCGGTAATCCGTATTTGGA (site CACTTGGCTTT)”, 1.77.
For “CACTTGGCATGGACCGGTTTTCCCGGTAATCCGTATTTGGA (site CACTTGTCTTC)” the value was 0.78.
Under “CACTTGGCATGGACCGGTTTTCCCGGTAATCCGTATTTGGA (site CACTTTGCTTC)” stands 0.00347; under “CACTTGGCATGGACCGGTTTTCCCGGTAATCCGTATTTGGA (site CAGTTGGCTTC)”, 0.28.
As to “CACTTGGCATGGACCGGTTTTCCCGGTAATCCGTATTTGGA (site CATTTGGCTTC)”, the “recombinant UMI read abundance (log10)” value amounted to 0.342.
Regarding “CACTTGGCATGGACCGGTTTTCCCGGTAATCCGTATTTGGA (site CCCTTGGCTTC)”, the “recombinant UMI read abundance (log10)” value was 0.304.
Under “CACTTGGCATGGACCGGTTTTCCCGGTAATCCGTATTTGGA (site CGCTTGGCTTC)” stands 0.439; under “CACTTGGCATGGACCGGTTTTCCCGGTAATCCGTATTTGGA (site CTCTTGGCTTC)”, 0.0309; under “CACTTGGCATGGACCGGTTTTCCCGGTAATCCGTATTTGGA (site GACTTGGCTTC)”, 0.112.
For “CACTTGGCATGGACCGGTTTTCCCGGTAATCCGTATTTGGA (site TACTTGGCTTC)” the value was 0.275; for “CACTTGGCATGGACCGGTTTTCCCGGTAATCCGTATTTGGC (site CACTTGGCTAC)”, 0.012.
As to “CACTTGGCATGGACCGGTTTTCCCGGTAATCCGTATTTGGC (site CACTTGGCTCC)”, the “recombinant UMI read abundance (log10)” value was 0.0109.
Under “CACTTGGCATGGACCGGTTTTCCCGGTAATCCGTATTTGGC (site CACTTGGCTGC)” stands 1.64.
“CACTTGGCATGGACCGGTTTTCCCGGTAATCCGTATTTGGC (site CACTTGGCTTC)”: the “recombinant UMI read abundance (log10)” value worked out at 0.166.
Consider “CACTTGGCATGGACCGGTTTTCCCGGTAATCCGTATTTGGG (site CACTTGGCTAC)”, for which the “recombinant UMI read abundance (log10)” value turned out to be 0.0307.
Under “CACTTGGCATGGACCGGTTTTCCCGGTAATCCGTATTTGGG (site CACTTGGCTCC)” stands 0.0801; under “CACTTGGCATGGACCGGTTTTCCCGGTAATCCGTATTTGGG (site CACTTGGCTGC)”, 0.
Under “CACTTGGCATGGACCGGTTTTCCCGGTAATCCGTATTTGGG (site CACTTGGCTTC)” stands 0.0398; under “CACTTGTCATGGACCGGTTTTCCCGGTAATCCGTATTTGGA (site CACTTGACTTC)”, 0.0147; under “CACTTGTCATGGACCGGTTTTCCCGGTAATCCGTATTTGGA (site CACTTGCCTTC)”, 0.0181.
For “CACTTGTCATGGACCGGTTTTCCCGGTAATCCGTATTTGGA (site CACTTGGCTTC)” the value was 0.00318; for “CACTTGTCATGGACCGGTTTTCCCGGTAATCCGTATTTGGA (site CACTTGTCTTC)”, 1.84.
For “CAGAAGTCATGGACCGGTTTTCCCGGTAATCCGTATTTGAC (site CAGAAGTCTGT)”, the “recombinant UMI read abundance (log10)” value was 1.46.
Under “CAGAATACATGGACCGGTTTTCCCGGTAATCCGTATTTGCA (site AAGAATACTTG)” stands 0.616.
